Publication PMC7954990 (European journal of medicinal chemistry, 2021)

Assays:
HSP90 = assay: Test against HSP90; details: data not shown
MCF-7 cell line = assay: Antiproliferation assay; assay type: cell-based; details: 72 h, alamarBlue, highest concentration tested
CDK2 = CDK2 (Homo sapiens, UniProt P24941); assay: DiscoverX kinase binding assay for Kd; details: for better binding affinity for CDK2 compared to screening hit 3: relative to 3
CDK2/cyclin A [1] = target: T1, CDK2/cyclin A (Homo sapiens, UniProt P24941); assay: Reaction Biology 33P-ATP filter-binding kinase assay, CDK2/cyclin A; assay type: biochemical
MDCK cell line = assay: MDCK cell permeability assay; assay type: in vitro ADME; details: 1 μM, 2 h; for Papp (A-B) (10^−6, cm/s): apical to basolateral; for Papp (B-A) (10^−6, cm/s): basolateral to apical
CDK complexes = assay: Reaction Biology single-dose kinase profiling of CDK complexes; assay type: biochemical; details: all tested CDK complexes
CDK2/cyclin A [2] = target: T1, CDK2/cyclin A; assay: CDK2/cyclin A enzyme assay; assay type: biochemical; details: Tables 1 and 2
CDK2/cyclin E = CDK2/cyclin E (Homo sapiens, UniProt P24941); assay: Reaction Biology 33P-ATP filter-binding kinase assay, CDK2/cyclin E; assay type: biochemical

With `Cc1nn(-c2ccccn2)c2c1C(=O)CC(C)(C)C2Br` (stereo not shown) [Compound 3, 7-Bromo-3,6,6-trimethyl-1-(pyridin-2-yl)-6,7-dihydro-1H-indazol-4(5H)-one] the “activity against HSP90” value (HSP90) was “did not exhibit any activity”, the “antiproliferative activities against MCF-7 cell line, none up to” value (“antiproliferative activities” below) (MCF-7 cell line) was over 200 µM and the Kd (CDK2) was 15000 nM. For the same molecule, the IC50 (CDK2/cyclin A [1]) was 86 nM, the “Papp (A-B) (10^−6, cm/s)” value (MDCK cell line) was 20.1 10^−6, cm/s and the “Papp (B-A) (10^−6, cm/s)” value (MDCK cell line) was 9.52 10^−6, cm/s.
In the case of `Cc1nn(-c2ccccn2)c2c1C(=O)CC(C)C2Br` (stereo not drawn) [Compound 18b-cis, 7-Bromo-3,6-dimethyl-1-(pyridin-2-yl)-6,7-dihydro-1H-indazol-4(5H)-one], the “Inhibition of CDK complexes at 1 μM, in words” value (CDK complexes) is reported as “did not exhibit significant inhibitory activity”.
`Cc1nn(-c2ccccn2)c2c1C(=O)CC(c1ccccc1)C2Br` (stereo not shown) [Compound 18d, 7-Bromo-3-methyl-6-phenyl-1-(pyridin-2-yl)-6,7-dihydro-1H-indazol-4(5H)-one] was tested, and the “CDK2/cyclin A inhibitory activity, in words” value (CDK2/cyclin A [2]) was “inactive”.
`Cc1nn(-c2ccccn2)c2c1NC(=O)CC(C)(C)C2` [Compound 19, 3,7,7-Trimethyl-1-(pyridin-2-yl)-4,6,7,8-tetrahydropyrazolo[4,3-b]azepin-5(1H)-one] was tested, and the “CDK2/cyclin A inhibitory activity, in words” value (CDK2/cyclin A [2]) was “inactive”.
In the case of `Cc1nn(-c2ccccn2)c2c1C(=O)NCC(C)(C)C2` [Compound 20, 3,7,7-Trimethyl-1-(pyridin-2-yl)-5,6,7,8-tetrahydropyrazolo[4,3-c]azepin-4(1H)-one], the “CDK2/cyclin A inhibitory activity, in words” value (CDK2/cyclin A [2]) is reported as “inactive”.
In the case of `Cc1nn(-c2ccccn2)c2c1C(=O)NCC(C)(C)C2Br` (stereo not shown) [Compound 21, 8-Bromo-3,7,7-trimethyl-1-(pyridin-2-yl)-5,6,7,8-tetrahydropyrazolo[4,3-c]azepin-4(1H)-one], the “CDK2/cyclin A inhibitory activity, in words” value (CDK2/cyclin A [2]) is reported as “moderately active”.
With `Cc1nn(-c2ccccn2)c2c1C(O)CC(C)(C)C2Br` (stereo not shown) [Compound 22, 7-Bromo-3,6,6-trimethyl-1-(pyridin-2-yl)-4,5,6,7-tetrahydro-1H-indazol-4-ol] the “CDK2/cyclin A inhibitory activity, in words” value (CDK2/cyclin A [2]) was “weak inhibitory activity”.
In the case of `Cc1nn(-c2ccccn2)c2c1/C(=N/O)CC(C)(C)C2Br` (stereo not shown) [Compound 23, 7-Bromo-3,6,6-trimethyl-1-(pyridin-2-yl)-6,7-dihydro-1H-indazol-4(5H)-one Oxime], the “CDK2/cyclin A inhibitory activity, in words” value (CDK2/cyclin A [2]) is reported as “weak inhibitory activity”.
In the case of `Cc1cccnc1-n1nc(C)c2c1CC(C)(C)C(Br)C2=O` (stereo not shown) [Compound 40, 5-Bromo-3,6,6-trimethyl-1-(3-methylpyridin-2-yl)-6,7-dihydro-1H-indazol-4(5H)-one], the “CDK2/cyclin A inhibitory activity, in words” value (CDK2/cyclin A [2]) is reported as “low activities”.
`Cc1nn(-c2ncccc2C(F)(F)F)c2c1C(=O)CC(C)(C)C2Br` (stereo not shown) [Compound 46, 7-Bromo-3,6,6-trimethyl-1-(3-(trifluoromethyl)pyridin-2-yl)-6,7-dihydro-1H-indazol-4(5H)-one] was tested, and the “CDK2/cyclin A inhibitory activity, in words” value (CDK2/cyclin A [2]) was “low activities”.
In the case of `Cc1nn(-c2ncccc2C(F)(F)F)c2c1C(=O)C(Br)C(C)(C)C2` (stereo not shown) [Compound 47, 5-Bromo-3,6,6-trimethyl-1-(3-(trifluoromethyl)pyridin-2-yl)-6,7-dihydro-1H-indazol-4(5H)-one], the “CDK2/cyclin A inhibitory activity, in words” value (CDK2/cyclin A [2]) is reported as “low activities”.
`Cc1nn(-c2nccs2)c2c1C(=O)CC(C)(C)C2Br` (stereo not shown) [Compound 53, 7-Bromo-3,6,6-trimethyl-1-(thiazol-2-yl)-6,7-dihydro-1H-indazol-4(5H)-one] was tested, and the IC50 (CDK2/cyclin E) was 2 nM, the “antiproliferative activities” value (MCF-7 cell line) was over 200 µM and the “better binding affinity for CDK2 compared to screening hit 3” value (CDK2) was 3 fold. For the same molecule, the IC50 (CDK2/cyclin A [1]) was 61.9 nM.
With `Cc1nn(-c2ccncn2)c2c1C(=O)CC(C)(C)C2Br` (stereo not shown) [Compound 59, 7-Bromo-3,6,6-trimethyl-1-(pyrimidin-4-yl)-6,7-dihydro-1H-indazol-4(5H)-one] the “antiproliferative activities” value (MCF-7 cell line) was over 200 µM, the “better binding affinity for CDK2 compared to screening hit 3” value (CDK2) was 3 fold and the IC50 (CDK2/cyclin A [1]) was 120 nM.
With `COCCc1ccc(OCC(O)CNC(C)C)cc1` (stereo not shown) [Metoprolol, metoprolol, reference compound] the “Papp (A-B) (10^−6, cm/s)” value (MDCK cell line) was 26.9 10^−6, cm/s and the “Papp (B-A) (10^−6, cm/s)” value (MDCK cell line) was 21.2 10^−6, cm/s.
